This is an account of results in patent publication US20250011288A1 (BRISTOL-MYERS SQUIBB COMPANY, priority 2021, published 2025).

The target of one series is T1, human RXFP1 (Homo sapiens, UniProt Q9HBX9).
T1 construct: expressed in transfected cells
T1 sequence (Q9HBX9 1-757): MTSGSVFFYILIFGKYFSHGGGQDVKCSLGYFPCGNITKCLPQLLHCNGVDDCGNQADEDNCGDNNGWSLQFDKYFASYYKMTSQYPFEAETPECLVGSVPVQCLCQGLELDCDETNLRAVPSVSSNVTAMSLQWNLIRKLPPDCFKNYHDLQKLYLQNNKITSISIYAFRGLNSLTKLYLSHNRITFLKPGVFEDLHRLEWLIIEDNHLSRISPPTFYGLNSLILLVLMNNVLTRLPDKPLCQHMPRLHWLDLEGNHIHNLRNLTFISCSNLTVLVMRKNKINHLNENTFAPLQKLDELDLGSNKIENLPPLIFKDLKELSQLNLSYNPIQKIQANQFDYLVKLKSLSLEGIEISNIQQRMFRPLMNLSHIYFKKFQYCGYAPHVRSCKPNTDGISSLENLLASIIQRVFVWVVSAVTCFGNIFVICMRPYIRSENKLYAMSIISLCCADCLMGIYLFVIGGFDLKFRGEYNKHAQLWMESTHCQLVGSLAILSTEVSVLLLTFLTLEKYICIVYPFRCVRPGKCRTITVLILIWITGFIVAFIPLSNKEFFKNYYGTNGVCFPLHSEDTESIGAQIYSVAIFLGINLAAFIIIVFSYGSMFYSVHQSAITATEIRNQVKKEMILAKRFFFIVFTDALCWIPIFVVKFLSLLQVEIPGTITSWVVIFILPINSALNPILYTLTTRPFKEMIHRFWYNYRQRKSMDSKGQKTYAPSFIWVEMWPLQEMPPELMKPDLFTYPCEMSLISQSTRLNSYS
The experiment in a line: human RXFP1 (hRXFP1) HEK293 cAMP assay (HTRF). The format is cell-based. To be noted: HEK293 cells stably expressing human RXFP1, 30 min at room temperature. The method in brief: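 HEK293 cells stably expressing human RXFP1 (1500 cells/well) in HBSS/20 mM HEPES/0.05% BSA/0.5 mM IBMX, treated with compound (0.010 nM–50 µM final, 2% DMSO) for 30 min at room temperature. Intracellular cAMP read by HTRF; potency from 4-parameter logistic fit of cAMP versus concentration.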
In general terms: cAMP levels reflect the balance of adenylyl cyclase and phosphodiesterase activity.

For series [1] the following is noted: intravenous (IV) formulation; cited from earlier work.

pEC50: −log10 of the molar value.

Usually pEC50 stands for the EC50 on a negative log10 scale, so that one unit is a factor of ten. For `CC(C)(O)CN1CC2ON=C(c3cc4c(c(C(=O)N[C@H]5[C@@H](C(=O)Nc6ccc(F)c(C(F)(F)F)c6)[C@H]6CC[C@@H]5/C6=C\C5CC5)c3)OC(C)(C)C4)C2C1` (stereo partly drawn) [Example 179, N-[(1R,2R,3S,4R, 7Z)-7-(cyclopropyl-methylidene)-3-{[4-fluoro-3-(trifluoromethyl)phenyl]carbamoyl}bicyclo[2.2.1]heptan-2-yl]-5-[5-(2-hydroxy-2-methylpropyl)-3aH,4H,5H,6H, 6aH-pyrrolo[3,4-d][1,2]oxazol-3-yl]-2,2-dimethyl-2,3-dihydro-1-benzofuran-7-carboxamide], the pEC50 on human RXFP1 was 8.19. For the compound `COc1ncc(C2=NOC3CN(CC(O)C(F)(F)F)CC23)cc1C(=O)N[C@H]1[C@@H](C(=O)Nc2ccc(F)c(C(F)(F)F)c2)[C@H]2CC[C@@H]1/C2=C\C1CC1` (stereo partly drawn) [Example 180, N-[(1R,2R,3S,4R, 7Z)-7-(cyclopropyl-methylidene)-3-{[4-fluoro-3-(trifluoromethyl)phenyl]carbamoyl}bicyclo[2.2.1]heptan-2-yl]-2-methoxy-5-[5-(3,3,3-trifluoro-2-hydroxypropyl)-3aH,4H,5H,6H, 6aH-pyrrolo[3,4-d][1,2]oxazol-3-yl]pyridine-3-carboxamide], on human RXFP1, the pEC50 is 8.37. With `CNC(=O)O[C@@H](c1ccc(F)c(-c2cnc(OC)c(C(=O)N[C@@H]3C4CCC(/C4=C/C4CC4)[C@@H]3C(=O)Nc3ccc(F)c(C(F)(F)F)c3)c2)c1)C(F)(F)F` (stereo partly drawn) [Example 182, (1S)-1-[3-(5-{[(2R,3S,7Z)-7-(cyclopropyl-methylidene)-3-{[4-fluoro-3-(trifluoromethyl)phenyl]carbamoyl}bicyclo[2.2.1]heptan-2-yl]carbamoyl}-6-methoxypyridin-3-yl)-4-fluorophenyl]-2,2,2-trifluoroethyl N-methylcarbamate], the pEC50 at human RXFP1 was 8.59. Take `COc1ncc(-c2cc([C@H](OC(=O)N3CC4(COC4)C3)C(F)(F)F)ccc2F)cc1C(=O)N[C@@H]1C2CCC(/C2=C/C2CC2)[C@@H]1C(=O)Nc1ccc(F)c(C(F)(F)F)c1` (stereo partly drawn) [Example 184, (1S)-1-[3-(5-{[(2R,3S,7Z)-7-(cyclopropyl-methylidene)-3-{[4-fluoro-3-(trifluoromethyl)phenyl]carbamoyl}bicyclo[2.2.1]heptan-2-yl]carbamoyl}-6-methoxypyridin-3-yl)-4-fluorophenyl]-2,2,2-trifluoroethyl 2-oxa-6-azaspiro[3.3] heptane-6-carboxylate]: the pEC50 at human RXFP1 is 8.32. The compound `COc1ncc(-c2cc([C@H](OC(=O)NC3CCOCC3)C(F)(F)F)ccc2F)cc1C(=O)N[C@@H]1C2CCC(/C2=C/C2CC2)[C@@H]1C(=O)Nc1ccc(F)c(C(F)(F)F)c1` (stereo partly drawn) [Example 185, (1S)-1-[3-(5-{[(2R,3S,7Z)-7-(cyclopropyl-methylidene)-3-{[4-fluoro-3-(trifluoromethyl)phenyl]carbamoyl}bicyclo[2.2.1]heptan-2-yl]carbamoyl}-6-methoxypyridin-3-yl)-4-fluorophenyl]-2,2,2-trifluoroethyl N-(oxan-4-yl)carbamate] showed a negative-log EC50 (pEC50) on human RXFP1 of 8.60. This pEC50 is 0.28 log units higher than that of the compound before. On the same count and under the same terms, as for `COc1ncc(-c2cc([C@H](OC(=O)Nc3ccccc3)C(F)(F)F)ccc2F)cc1C(=O)N[C@@H]1C2CCC(/C2=C/C2CC2)[C@@H]1C(=O)Nc1ccc(F)c(C(F)(F)F)c1` (stereo partly drawn) [Example 186, (1S)-1-[3-(5-{[(2R,3S,7Z)-7-(cyclopropyl-methylidene)-3-{[4-fluoro-3-(trifluoromethyl)phenyl]carbamoyl}bicyclo[2.2.1]heptan-2-yl]carbamoyl}-6-methoxypyridin-3-yl)-4-fluorophenyl]-2,2,2-trifluoroethyl N-phenylcarbamate], the figure is 9.10; as for `COc1ncc(-c2cc([C@H](OC(=O)N3CCS(=O)(=O)CC3)C(F)(F)F)ccc2F)cc1C(=O)N[C@@H]1C2CCC(/C2=C/C2CC2)[C@@H]1C(=O)Nc1ccc(F)c(C(F)(F)F)c1` (stereo partly drawn) [Example 187, (1S)-1-[3-(5-{[(2R,3S,7Z)-7-(cyclopropyl-methylidene)-3-{[4-fluoro-3-(trifluoromethyl)phenyl]carbamoyl}bicyclo[2.2.1]heptan-2-yl]carbamoyl}-6-methoxypyridin-3-yl)-4-fluorophenyl]-2,2,2-trifluoroethyl 1,1-dioxo-1λ^6-thiomorpholine-4-carboxylate], 8.28. `COc1ncc(-c2cc([C@H](OC(=O)NC3CCC3)C(F)(F)F)ccc2F)cc1C(=O)N[C@H]1[C@@H](C(=O)N[C@H](C)C2(C)CC2)[C@H]2CC[C@@H]1/C2=C\C1CC(F)(F)C1` [Example 188, (1S)-1-[3-(5-{[(1R,2R,3S,4R,7Z)-7-[(3,3-difluorocyclobutyl)methylidene]-3-{[(1R)-1-(1-methylcyclopropyl)ethyl]carbamoyl}bicyclo[2.2.1]heptan-2-yl]carbamoyl}-6-methoxypyridin-3-yl)-4-fluorophenyl]-2,2,2-trifluoroethyl N-cyclobutyl-carbamate]: the negative logarithm of the EC50 (pEC50) at human RXFP1 is 9.30.

Compound “N- ((1R,2R,3S,4R,Z)- 3-((4-fluoro-3- (trifluoromethyl) phenyl)carbamoyl)- 7-3- hydroxy- propylidene) bicyclo[2.2.1] heptan-2-yl)-5-(5- (hydroxymethyl)- 3a,5,6,6a- tetrahydro-4H- cyclopenta[d] isoxazol-3-yl)-2- methoxy- nicotinamide [Example 114]” showed a pEC50 at human RXFP1 of 8.92. This pEC50 lies 0.38 log units lower than the previous one. Serelaxin: the first-phase pharmacokinetic half-life in series [1] was 5.4 min.
